Laboratory results reported in article PMC12693416, “From Lipid Regulation to Neuroprotection: Multitarget (Benzo)thiazine Derivatives as Promising Leads” (Molecules, 2025).
pIC50: −log10 of the molar value. Where two headings read alike, the source gives them in different places.

Assays:
[1] = target: soybean lipoxygenase (LOX-3); assay: Soybean lipoxygenase (LOX-3) inhibition; assay type: biochemical; conditions: after 5 min of incubation; sodium linoleate 100 μM, pH 9.0
Protocol: Lipoxygenase (LOX) inhibitory activity was determined using soybean lipoxygenase (250 U/mL) and sodium linoleate (100 μM) as substrate, in Tris–HCl buffer pH 9.0.

[2] = system: carrageenan-induced mouse paw edema; assay: Carrageenan-induced mouse paw edema; assay type: in vivo, C57BL/6 mice; conditions: ip, 3.5 h, i.p. 0.30 mmol/kg, female C57BL/6, 3.5 h after carrageenan, read-out: % Edema (decrease of carrageenan-induced paw edema vs control)
Protocol: For the in vivo anti-inflammatory activity, C57BL/6 mice were injected with 0.025 mL carrageenan (2% w/v solution in saline) i.d. into the right hind paw, the left paw serving as control. The test compounds dissolved in saline (300 μmol/kg) were given i.p. right after the carrageenan injection, and 3.5 h later the produced edema was estimated as paw weight increase. Results are expressed as percentage of reduction in paw-edema and are the mean of 6 animals (per compound).

[3] = Radical scavenging of DPPH; conditions: DPPH 200 μM, 30 min incubation
Protocol: Compounds, dissolved in absolute methanol, at concentrations of 25–400 μM, were added to an equal volume of a methanolic solution of DPPH (final concentration 200 μM) at room temperature (22 ± 2 °C).

[4] = Iron chelation (ferrozine assay); conditions: for % of Fe(II) Chelation (at 100 μM): 100 μM compound, Fe2+ 20 μM
Protocol: […] The reaction was initiated with the addition of a 100 μM aqueous ferrozine solution, which chelates iron ions, resulting in an increased maximum absorbance at 562 nm. After incubation at 37 °C for 10 min, the mixture’s absorbance is measured at 562/700 nm. Each value is expressed as the mean of 3 tests per sample [46].

[5] = system: plasma of hyperlipidaemic mice; assay: Total antioxidant capacity (TAC) of plasma in hyperlipidaemic mice; assay type: in vivo; conditions: Mus musculus, ip, 24 h, i.p. 84 μmol/kg, read-out: Total Antioxidant Capacity (TAC) Increase (%)
[6] = target: T1, acetylcholinesterase from eel (Electrophorus electricus, UniProt O42275); assay: Acetylcholinesterase (AChE) inhibition (Ellman); assay type: biochemical; conditions: read-out: AChE Inhibition (%), 300 μM compound
T1 construct: purchased Sigma
Protocol: (0.31 mM) in phosphate buffer with pH = 7. The incubation mixture is monitored for 7 min at 37 °C.

hyperlipidaemic mice = assay: Tyloxapol (Triton WR 1339)-induced hyperlipidemia, plasma lipid parameters; assay type: in vivo; conditions: Mus musculus, ip, 24 h, i.p. 84 μmol/kg, 24 h
Protocol: An aqueous solution of Triton WR 1339 was given i.p. to mice (400 mg/kg of body weight) and one hour later the test compounds (84 μmol/kg of body weight), dissolved in saline or saline only, were administered i.p. After 24 h, blood was taken from the aorta/heart and used for the determination of plasma total cholesterol (TC), triglyceride (TG) levels, and high-density lipoprotein (HDL) levels, using commercially available kits (Biosis Cholesterol Enzymatic/PAP, Biosis Triglycerides GPO/PAP, and Biosis HDL Phosphovolframic, Biosis, Athens Greece). Levels of plasma lipids were determined in duplicate while values presented are the mean from 8 animals (per compound). The levels of low-density lipoprotein (LDL) are calculated according to the equation: LDL (mg/dL) = 3/4 * (TC-HDL).

[7] = system: mouse liver microsomal lipid peroxidation; assay: Inhibition of mouse liver microsomal lipid peroxidation (LP); conditions: for pIC50: read-out: LP IC50 Value, 45 min incubation; for LP % Inhibition at 100 μΜ: 100 μM compound
[8] = plasma, vs tyloxapol control, read-out: % HDL Increase
[9] = LDL calculated as 3/4*(TC-HDL), read-out: % LDL Decrease
[10] = plasma, vs tyloxapol control, read-out: % Total Cholesterol (TC) Reduction
[11] = plasma, vs tyloxapol control, read-out: % Triglycerides (TG) Reduction

T1 sequence (O42275 24-633): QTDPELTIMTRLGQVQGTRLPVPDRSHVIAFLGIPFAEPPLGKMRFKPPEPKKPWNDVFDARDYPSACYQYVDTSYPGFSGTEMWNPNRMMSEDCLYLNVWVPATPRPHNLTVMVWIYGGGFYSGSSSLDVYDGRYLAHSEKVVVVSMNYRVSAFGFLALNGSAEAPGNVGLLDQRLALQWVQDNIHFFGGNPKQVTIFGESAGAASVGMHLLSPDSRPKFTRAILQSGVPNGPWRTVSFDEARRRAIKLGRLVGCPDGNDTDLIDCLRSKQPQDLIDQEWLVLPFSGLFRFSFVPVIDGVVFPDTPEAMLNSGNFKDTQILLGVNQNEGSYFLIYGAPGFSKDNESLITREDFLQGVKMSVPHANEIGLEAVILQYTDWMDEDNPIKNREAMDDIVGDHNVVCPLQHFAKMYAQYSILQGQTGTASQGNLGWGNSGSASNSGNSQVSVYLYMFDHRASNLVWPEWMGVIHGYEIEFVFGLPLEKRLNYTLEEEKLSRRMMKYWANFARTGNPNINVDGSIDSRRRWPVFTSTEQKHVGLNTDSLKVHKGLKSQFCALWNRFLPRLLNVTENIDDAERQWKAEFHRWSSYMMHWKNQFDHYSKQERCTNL

| SMILES | IC50 [1] [µM] | inhibition in vivo at 300 µmol/kg [2] [%] | pIC50 [3] | % of Fe(II) Chelation (at 100 μM) [4] [%] | change in vivo at 84 µmol/kg [5] [%] | inhibition at 300 µM [6] [%] | change in vivo at 84 µmol/kg (hyperlipidaemic mice; [8]) [%] | inhibition in vivo at 84 µmol/kg (hyperlipidaemic mice; [9]) [%] | inhibition in vivo at 84 µmol/kg (hyperlipidaemic mice; [10]) [%] | inhibition in vivo at 84 µmol/kg (hyperlipidaemic mice; [11]) [%] | pIC50 [7] | LP % Inhibition at 100 μΜ [7] [%] | change in vivo at 84 µmol/kg (hyperlipidaemic mice; ratio calculated, read-out: % HDL/LDL Increase (antiatherogenic index)) [%] | % of Fe(II) Chelation at 10 μM ([4]; 10 μM compound) [%] |
| --- | --- | --- | --- | --- | --- | --- | --- | --- | --- | --- | --- | --- | --- | --- |
| O=C(O)/C=C/c1ccccc1 [cinnamic acid, reference compound] | > 300 | – | – | – | – | – | – | – | – | – | – | – | – | – |
| CC(C)(C)c1cc(C(=O)N2CC(c3ccc(-c4ccccc4)cc3)Sc3ccccc32)cc(C(C)(C)C)c1O (stereo not shown) [Compound 15, (2-([1,1′-Biphenyl]-4-yl)-2,3-dihydro-4H-benzo[b][1,4]thiazin-4-yl)(3,5-ditertbutyl-4-hydroxyphenyl)methanone] | 83 | 31 | < 3.40 | 8 | 131 | 23 | 79 | 74 | 55 | 35 | < 3.30 | – | – | – |
| CC(C)Cc1ccc(C(C)C(=O)N2CC(c3ccc(-c4ccccc4)cc3)Sc3ccccc32)cc1 (stereo not shown) [Compound 17, 1-(2-([1,1′-Biphenyl]-4-yl)-2,3-dihydro-4H-benzo[b][1,4]thiazin-4-yl)-2-(4-isobutylphenyl)propan-1-one] | 104 | 39 | < 3.40 | 29 | 139 | 13 | 43 | 68 | 45 | 58 | < 3.00 | – | – | – |
| O=C(O)c1cc(O)c(O)c(O)c1 [gallic acid, reference compound] | – | – | 4.85 | 98 | – | – | – | – | – | – | – | 73 | – | – |
| O=C1O[C@H]([C@@H](O)CO)C(O)=C1O [ascorbic acid, reference compound] | – | – | 4.38 | – | – | – | – | – | – | – | – | – | – | – |
| COc1ccc(/C=C/C(=O)N2CCSC(c3ccc(-c4ccccc4)cc3)C2)cc1OC (stereo not shown) [Compound 2, (E)-1-(2-([1,1′-Biphenyl]-4-yl)thiomorpholino)-3-(3,4-dimethoxyphenyl)prop-2-en-1-one] | > 300 | ≤ 60 | < 3.40 | 18 | 43 | 26 | 44 | 53 | 30 | 60 | < 3.00 | – | 122 | – |
| Cc1cc(C(C)(C)C)c(O)c(C(C)(C)C)c1 [BHT, butylated hydroxytoluene, reference compound] | – | – | 4.51 | 0 | – | – | – | – | – | – | – | 0 | – | – |
| COc1cc(C(=O)N2CCSC(c3ccc(-c4ccccc4)cc3)C2)cc(OC)c1OC (stereo not shown) [Compound 4] | 71 | 44 | < 3.40 | 4 | 87 | 30 | 95 | 5 | 10 | 35 | < 3.30 | – | – | – |
| O=C(c1cc(O)c(O)c(O)c1)N1CCSC(c2ccc(-c3ccccc3)cc2)C1 (stereo not shown) [Compound 3, (2-([1,1′-Biphenyl]-4-yl)thiomorpholino)(3,4,5-trihydroxyphenyl)methanone] | 4 | ≤ 60 | 4.51 | 89 | – | 10 | 49 | 79 | 51 | 86 | 5.10 | – | – | 56 |
